This is an account of results in paper PMC9231160, “Monoterpenoid Glycosides from the Leaves of Ligustrum robustum and Their Bioactivities” (Molecules, 2022).

Test [1] addresses T1, fatty acid synthase (FAS) (Gallus gallus, UniProt P12276).
T1 construct: isolated from chicken liver and kept in ice-bath; from tissue; host or cells: chicken liver
As to the kind of experiment: FAS inhibitory activity. The class given is biochemical, chicken. As to conditions: for IC50: FAS isolated from chicken liver, mean ± SD (n = 3), NA = no activity; for FAS inhibitory activity (in words): qualitative statement. The protocol: (§1) All samples were measured in triplicate. […] Differences of means between groups were analyzed by one-way analysis of variance (ANOVA) on statistical package SPSS 13.0. The differences between groups were believed to be significant when p < 0.05.
S1. Determination of bioactivities.
S1.1. Determination of FAS inhibitory activity. […]
diluted with potassium phosphate buffer (0.1 M, pH 7.0). Sample solution (100 μL, 20-2000 μM, 37 °C) and FAS substrates (1.8 mL, 37 °C) were mixed in a cuvette, and then FAS solution (100 μL, 37 °C, isolated from chicken liver and kept in ice-bath before use) was added. The absorbance of reaction mixture was monitored by a UV-vis spectrophotometer at 340 nm in 1 min. The inhibitory effect was calculated by the following equation: FAS inhibition (%) = (Acontrol - Asample)/Acontrol × 100%, where Acontrol represented the FAS activity in the control group (phosphate buffer instead of sample solution), Asample represented the FAS activity in the sample groups. The FAS activity was calculated as (A0 - A1)/1 min, in which A0 was the absorbance of the reaction mixture when the FAS was added, and A1 was the absorbance of the reaction mixture after reaction 1 min. Orlistat was used as the positive control.
FAS substrates: 0.1 M potassium phosphate buffer (pH 7.0), 1 mM ethylene-

For another test, the system named is α-Glucosidase from yeast. As to the kind of experiment: α-glucosidase inhibitory activity. The class given is biochemical. As to conditions: for α-Glucosidase Inhibition at 0.1 mM: mean ± SD (n = 3), NA = no activity. The protocol:
as §1
S1. Determination of bioactivities. […]
S1.2. Determination of α-glucosidase inhibitory activity. […]
diluted with phosphate buffer (0.1 M, pH 6.8). […]
and 4-nitrophenyl α-D-glucopyranoside (pNPG) solution (50 μL, 5 mM) were mixed and incubated in a 96-well microplate at 37 °C for 5 min. α-Glucosidase from yeast (50 μL, 0.2 U/mL) was added and incubated at 37 °C for another 30 min. Finally, 50 μL of Na2CO3 (1M) was added to terminate the reaction. The absorbance of mixture was measured using a microplate reader at a wavelength 405 nm. […]
following equation: α-glucosidase inhibition (%) = (Acontrol - Asample)/Acontrol × 100%, where Acontrol represented the absorbance of phosphate buffer control without test samples, Asample represented the absorbance of test samples. Acarbose was used as the […]

A further test has as its system α-amylase. Nature of the test: α-amylase inhibitory activity. It counts as biochemical. As to conditions: for α-Amylase Inhibition at 0.1 mM: mean ± SD (n = 3), NA = no activity. The procedure: as §1
(§2) S1.3. Determination of α-amylase inhibitory activity.
Phosphate buffer (20 mM, pH 6.9, containing 6 mM NaCl) was used as the […]
μL, 1%, w/v) were mixed and incubated in a 96-well microplate at 37 °C for 10 min.
Then, α-amylase solution (50 μL, 0.2 U/mL) was added and the mixture was incubated at 37 °C for an additional 10 min. The reaction was stopped by addition of […]
microplate was immediately heated in 95 °C water bath for 10 min. When the reaction solution cooled to room temperature, all samples were diluted by adding distilled water (50 μL), and then their absorbance was measured using a microplate reader at […]
starch solution) at 540 nm, thus the inhibitory activity was calculated as (Acontrol - Asample)/Acontrol × 100%, in which Asample was the absorbance of the sample and Acontrol was the absorbance of the phosphate buffer control without test samples. Acarbose was used as the positive control.
(§3) S1.4. DPPH radical scavenging assay […]

A short description of test [2]: ABTS radical scavenging assay. As to conditions: mean ± SD (n = 3). The protocol:
All samples were measured in triplicate. […] Differences of means between groups were analyzed by one-way analysis of variance (ANOVA) on statistical package SPSS 13.0. The differences between groups were believed to be significant when p < 0.05. […]
as §3
S1.5. ABTS radical scavenging assay
The ABTS radical scavenging assay was used also to evaluate the antioxidant
The ABTS free radical cation (ABTS•+ ) was
manufactured by reacting ABTS stock solution (7 mM) with potassium persulphate

Test [3] in a line: DPPH radical scavenging assay. The note with it: mean ± SD (n = 3), NA = no activity. The protocol: Statistical analyses were carried out on GraphPad Prism 5.01. All samples were measured in triplicate. The IC50 (the final concentration of sample needed to inhibit 50% of enzyme activity or scavenge 50% of free radical) was obtained by plotting the inhibition or scavenging percentage of each sample against its concentration. The results are reported as mean ± standard deviation (SD). Differences of means between groups were analyzed by one-way analysis of variance (ANOVA) on statistical package SPSS 13.0. The differences between groups were believed to be significant when p < 0.05.
as §2
Phosphate buffer (20 mM, pH 6.9, containing 6 mM NaCl) was used as the solvent in this assay. Sample solution (50 μL, 50-1500 μM) and starch solution (50 μL, 1%, w/v) were mixed and incubated in a 96-well microplate at 37 °C for 10 min.
Then, α-amylase solution (50 μL, 0.2 U/mL) was added and the mixture was incubated at 37 °C for an additional 10 min. […] When the reaction solution cooled to room temperature, all samples were diluted by adding distilled water (50 μL), and then their absorbance was measured using a microplate reader at 540 nm. All samples had little background absorbance (phosphate buffer instead of starch solution) at 540 nm, thus the inhibitory activity was calculated as (Acontrol - Asample)/Acontrol × 100%, in which Asample was the absorbance of the sample and Acontrol was the absorbance of the phosphate buffer control without test samples. […]
The DPPH radical scavenging assay was used to evaluate the antioxidant activity of compounds 1-11. […] The absorbance of the reaction mixture was measured at 517 nm using a microplate reader. The DPPH scavenging activity was calculated by the following formula: DPPH scavenging activity (%) = (Acontrol - Asample)/Acontrol × 100%, where Acontrol was the absorbance of ethanol control without samples, Asample was the absorbance of sample. […]

[4] abbreviates: qualitative statement, compared with positive control acarbose.

One may read the IC50 as the concentration that gives 50% inhibition. A high value points to weaker potency.

Entries after “also recorded” stand apart in the source; their conditions may differ.

T1 sequence (P12276 whole entry): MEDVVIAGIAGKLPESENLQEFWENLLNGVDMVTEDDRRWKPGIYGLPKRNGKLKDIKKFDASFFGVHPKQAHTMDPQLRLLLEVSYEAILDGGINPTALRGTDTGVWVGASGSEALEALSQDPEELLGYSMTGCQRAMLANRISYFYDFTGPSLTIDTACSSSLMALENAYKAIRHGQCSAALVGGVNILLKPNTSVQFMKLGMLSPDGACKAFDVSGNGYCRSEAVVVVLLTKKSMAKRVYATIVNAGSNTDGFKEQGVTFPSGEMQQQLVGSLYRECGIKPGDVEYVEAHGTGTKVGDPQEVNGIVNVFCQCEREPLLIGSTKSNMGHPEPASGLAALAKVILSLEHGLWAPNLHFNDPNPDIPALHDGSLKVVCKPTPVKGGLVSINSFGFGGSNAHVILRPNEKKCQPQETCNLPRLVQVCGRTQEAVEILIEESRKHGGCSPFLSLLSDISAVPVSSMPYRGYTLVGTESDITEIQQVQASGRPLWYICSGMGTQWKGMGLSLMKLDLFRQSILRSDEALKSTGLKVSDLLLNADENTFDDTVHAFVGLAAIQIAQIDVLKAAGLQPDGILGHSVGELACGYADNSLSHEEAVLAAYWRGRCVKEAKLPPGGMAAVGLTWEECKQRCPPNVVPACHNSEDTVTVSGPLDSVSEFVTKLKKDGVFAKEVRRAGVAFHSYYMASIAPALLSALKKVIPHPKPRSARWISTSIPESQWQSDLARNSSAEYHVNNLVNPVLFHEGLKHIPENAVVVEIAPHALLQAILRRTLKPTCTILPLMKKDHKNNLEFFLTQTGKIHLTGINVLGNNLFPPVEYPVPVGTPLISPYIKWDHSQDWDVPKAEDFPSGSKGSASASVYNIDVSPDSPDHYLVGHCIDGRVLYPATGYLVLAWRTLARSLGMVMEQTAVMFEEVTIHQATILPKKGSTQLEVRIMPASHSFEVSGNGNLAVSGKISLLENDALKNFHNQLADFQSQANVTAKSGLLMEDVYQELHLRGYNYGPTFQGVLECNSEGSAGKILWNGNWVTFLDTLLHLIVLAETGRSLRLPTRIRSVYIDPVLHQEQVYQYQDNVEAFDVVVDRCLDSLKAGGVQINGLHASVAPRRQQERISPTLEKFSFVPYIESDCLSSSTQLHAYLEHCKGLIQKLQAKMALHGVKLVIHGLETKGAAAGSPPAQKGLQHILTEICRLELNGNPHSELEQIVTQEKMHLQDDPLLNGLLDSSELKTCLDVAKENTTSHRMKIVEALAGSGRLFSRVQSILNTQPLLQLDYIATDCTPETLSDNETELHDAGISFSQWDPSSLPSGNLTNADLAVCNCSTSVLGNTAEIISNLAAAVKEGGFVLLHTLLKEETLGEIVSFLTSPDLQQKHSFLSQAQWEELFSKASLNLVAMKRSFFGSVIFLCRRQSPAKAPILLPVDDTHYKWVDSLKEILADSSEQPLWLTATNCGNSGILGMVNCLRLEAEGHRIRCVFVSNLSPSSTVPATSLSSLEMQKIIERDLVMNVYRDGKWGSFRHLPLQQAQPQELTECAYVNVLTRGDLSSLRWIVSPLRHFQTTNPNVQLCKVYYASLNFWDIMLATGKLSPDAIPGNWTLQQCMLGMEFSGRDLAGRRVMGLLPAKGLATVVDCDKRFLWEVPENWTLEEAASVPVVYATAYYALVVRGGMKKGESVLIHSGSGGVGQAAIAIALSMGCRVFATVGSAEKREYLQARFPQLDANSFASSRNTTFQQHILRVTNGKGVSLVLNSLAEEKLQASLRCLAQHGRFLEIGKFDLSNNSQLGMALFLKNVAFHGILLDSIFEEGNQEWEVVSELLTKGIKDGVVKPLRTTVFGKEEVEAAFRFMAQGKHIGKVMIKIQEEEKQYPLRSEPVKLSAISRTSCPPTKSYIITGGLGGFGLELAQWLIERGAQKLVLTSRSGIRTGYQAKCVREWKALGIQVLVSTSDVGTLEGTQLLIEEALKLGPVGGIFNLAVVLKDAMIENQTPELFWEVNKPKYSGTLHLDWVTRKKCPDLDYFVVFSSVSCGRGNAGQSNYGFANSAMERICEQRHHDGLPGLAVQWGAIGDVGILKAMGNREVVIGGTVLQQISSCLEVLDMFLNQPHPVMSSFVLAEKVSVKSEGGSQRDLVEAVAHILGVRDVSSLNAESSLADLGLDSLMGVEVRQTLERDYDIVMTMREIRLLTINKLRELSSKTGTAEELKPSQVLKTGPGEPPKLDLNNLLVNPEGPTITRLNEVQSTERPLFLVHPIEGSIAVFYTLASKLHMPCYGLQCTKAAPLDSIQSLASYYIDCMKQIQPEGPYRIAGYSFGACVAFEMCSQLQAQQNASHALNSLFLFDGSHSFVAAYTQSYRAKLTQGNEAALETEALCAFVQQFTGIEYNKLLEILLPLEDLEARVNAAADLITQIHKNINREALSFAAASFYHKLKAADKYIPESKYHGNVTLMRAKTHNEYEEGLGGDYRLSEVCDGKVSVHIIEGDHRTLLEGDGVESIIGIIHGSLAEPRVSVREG

For `C=CC(C)(C/C=C/C(C)(C)OC)O[C@@H]1O[C@H](COC(=O)/C=C/c2ccc(O)cc2)[C@@H](O)[C@H](O[C@@H]2O[C@@H](C)[C@H](O)[C@@H](O)[C@H]2O)[C@H]1O` (stereo partly drawn) [Compound 5, (5E)-3-(3-hydroxy-7-methoxy-3,7-dimethyl-octa-1,5-dienyl)-(3-O-α-L-rhamnopyranosyl)-(6-O-trans-p-coumaroyl)-O-β-D-glucopyranoside], the IC50 in test [1] is 23.7 ± 0.45 µM; in test [2], 6.93 ± 0.01 µM. Besides, the “α-Glucosidase Inhibition at 0.1 mM” value in the test on α-Glucosidase from yeast turned out to be 13.8 ± 2.0 d %. Also, the “α-Amylase Inhibition at 0.1 mM” value in the test with α-amylase was 35.6 ± 2.0 b %.
For `C=C(C)C(O)CCC(C)=CCOC1OC(CO)C(OC(=O)C=Cc2ccc(O)cc2)C(OC2OC(C)C(O)C(O)C2O)C1O` (centres unmarked) [Compound 9], the IC50 in test [1] came out at 21.7 ± 0.46 µM; in test [2] it was 18.7 ± 0.47 µM. Besides, in the test with α-Glucosidase from yeast, the “α-Glucosidase Inhibition at 0.1 mM” value is recorded as 12.4 ± 5.6 d %. In the test with α-amylase, the “α-Amylase Inhibition at 0.1 mM” value is given as 29.2 ± 8.4 b %.
`C=CC(C)(CCC=C(C)C)O[C@@H]1O[C@H](CO)[C@@H](OC(=O)/C=C/c2ccc(O)c(O)c2)[C@H](O[C@@H]2O[C@@H](C)[C@H](O)[C@@H](O)[C@H]2O)[C@H]1O` (mixture of isomers) [Compound 1, 3(R)- and 3(S)-linaloyl-(3-O-α-L-rhamnopyranosyl)-(4-O-trans-caffeoyl)-O-β-D-glucopyranoside]: the IC50 in test [3] came to 19.7 ± 0.23 µM; in test [2], 6.91 ± 0.1 µM.
Regarding `CC(=CCOC1OC(CO)C(OC(=O)C=Cc2ccc(O)cc2)C(OC2OC(C)C(O)C(O)C2O)C1O)CCC(O)C(C)(C)O` (centres unmarked) [Compound 11], the figures for the IC50 in test [1] and in test [2] were 61.74 ± 0.45 µM and 7.92 ± 0.23 µM, respectively. Further, in the test on α-amylase, the “α-Amylase Inhibition at 0.1 mM” value amounted to 31.3 ± 1.3 b %.
For `C=CC(C)(CCC(O)C(C)(C)O)OC1OC(COC(=O)C=Cc2ccc(O)cc2)C(O)C(OC2OC(C)C(O)C(O)C2O)C1O` (centres unmarked) [Compound 4], in that order: over 100 µM, 9.66 ± 0.17 µM and 28.2 ± 3.9 b %.
For the molecule `C=CC(C)(CCC=C(C)C)O[C@@H]1O[C@H](COC(=O)/C=C/c2ccc(O)cc2)[C@@H](O)[C@H](O[C@@H]2O[C@@H](C)[C@H](O)[C@@H](O)[C@H]2O)[C@H]1O` (mixture of isomers) [Compound 2, 3(R)- and 3(S)-linaloyl-(3-O-α-L-rhamnopyranosyl)-(6-O-trans-p-coumaroyl)-O-β-D-glucopyranoside], the values for the IC50 in test [1], in test [3] and in test [2] were 2.36 ± 0.1 µM, over 250 µM and 9.41 ± 0.22 µM, respectively. For the same molecule, the “FAS inhibitory activity (in words)” value in test [1] is given as “strong FAS inhibitory activity”. The “α-Glucosidase Inhibition at 0.1 mM” value with α-Glucosidase from yeast was 48.1 ± 4.3 b %. Moreover, the “α-glucosidase inhibitory effect (in words)” value in the test on α-Glucosidase from yeast (setting [4]) is “weaker α-glucosidase inhibitory effect than the positive control acarbose; also recorded: moderate”. In the test on α-amylase, the “α-Amylase Inhibition at 0.1 mM” value turned out to be 31.5 ± 0.5 b %. Further, in the test on α-amylase (setting [4]), the “α-amylase inhibitory effect (in words)” value is “moderate”.
As to `C=CC(C)(CCC(O)C(=C)C)O[C@@H]1O[C@H](COC(=O)/C=C/c2ccc(O)cc2)[C@@H](O)[C@H](O[C@@H]2O[C@@H](C)[C@H](O)[C@@H](O)[C@H]2O)[C@H]1O` (stereo partly drawn) [Compound 3, 3-(3,6-dihydroxy-3,7-dimethyl-octa-1,7-dienyl)-(3-O-α-L-rhamnopyranosyl)-(6-O-trans-p-coumaroyl)-O-β-D-glucopyranoside], the values for the IC50 in test [1] and in test [2] were 21.8 ± 0.38 µM and 16 ± 0.69 µM, respectively. In addition, in the test with α-Glucosidase from yeast, the “α-Glucosidase Inhibition at 0.1 mM” value worked out at 27.3 ± 0.3 c %. Also, the “α-Amylase Inhibition at 0.1 mM” value with α-amylase is listed as 32.5 ± 6.3 b %.
Turning to `COC(C)(C)C=CCC(C)=CCOC1OC(COC(=O)C=Cc2ccc(O)cc2)C(O)C(OC2OC(C)C(O)C(O)C2O)C1O` (centres unmarked) [Compound 8], the figures for the IC50 in test [1] and in test [2] were 25.8 ± 0.47 µM and 19.5 ± 0.46 µM, respectively. In the test on α-Glucosidase from yeast, the “α-Glucosidase Inhibition at 0.1 mM” value stood at 24.7 ± 3.5 c %. The “α-Amylase Inhibition at 0.1 mM” value in the test on α-amylase worked out at 31.4 ± 1.9 b %.
Regarding `C=CC(C)(CCC=C(C)C)O[C@@H]1O[C@H](CO)[C@@H](OC(=O)/C=C/c2ccc(O)cc2)[C@H](O[C@@H]2O[C@@H](C)[C@H](O[C@@H]3O[C@@H](C)[C@H](O)[C@@H](O)[C@H]3O)[C@@H](O)[C@H]2O)[C@H]1O` (stereo partly drawn) [Compound 6, linaloyl-[3-O-α-L-rhamnopyranosyl-(1→4)-α-L-rhamnopyranosyl]-(4-O-trans-p-coumaroyl)-O-β-D-glucopyranoside], the IC50 in test [1] was found to be 4.78 ± 0.14 µM; in test [2], 11.3 ± 0.16 µM. Moreover, in test [1], the “FAS inhibitory activity (in words)” value was “strong FAS inhibitory activity”. Further, the “α-Glucosidase Inhibition at 0.1 mM” value in the test with α-Glucosidase from yeast is on record as 12.0 ± 1.7 d %. The “α-Amylase Inhibition at 0.1 mM” value with α-amylase was found to be 26.1 ± 3.0 b %.
`O=C1O[C@H]([C@@H](O)CO)C(O)=C1O` [L-(+)-ascorbic acid, reference compound] showed an IC50 in test [3] of 13.66 ± 0.13 µM.
On to `C=CC(C)(CCC=C(C)C)O[C@@H]1O[C@H](CO)[C@@H](OC(=O)/C=C\c2ccc(O)cc2)[C@H](O[C@@H]2O[C@@H](C)[C@H](O[C@@H]3O[C@@H](C)[C@H](O)[C@@H](O)[C@H]3O)[C@@H](O)[C@H]2O)[C@H]1O` (stereo partly drawn) [Compound 7, linaloyl-[3-O-α-L-rhamnopyranosyl-(1→4)-α-L-rhamnopyranosyl]-(4-O-cis-p-coumaroyl)-O-β-D-glucopyranoside], for which the IC50 in test [1] was over 100 µM; in test [2] it was 20.2 ± 0.33 µM.
Turning to `CC(C)=CCC/C(C)=C/CO[C@@H]1O[C@H](CO)[C@@H](OC(=O)/C=C/c2ccc(O)cc2)[C@H](O[C@@H]2O[C@@H](C)[C@H](O)[C@@H](O)[C@H]2O)[C@H]1O` [Compound 10, ligurobustoside C], the IC50 in test [1] amounted to 4.68 ± 0.16 µM; in test [2], 15.1 ± 0.1 µM. The “FAS inhibitory activity (in words)” value in test [1] was “strong FAS inhibitory activity”. In the test on α-Glucosidase from yeast, the “α-Glucosidase Inhibition at 0.1 mM” value is listed as 28.7 ± 2.1 c %.
